One assay deals with T1, Human Glucokinase (Homo sapiens, UniProt P35557).
T1 construct: Full-length human hepatic GK (untagged) was expressed; made in house; host or cells: E. coli BL21 STAR (DE3)pLysS
T1 sequence (P35557 1-466 isoform P35557-2): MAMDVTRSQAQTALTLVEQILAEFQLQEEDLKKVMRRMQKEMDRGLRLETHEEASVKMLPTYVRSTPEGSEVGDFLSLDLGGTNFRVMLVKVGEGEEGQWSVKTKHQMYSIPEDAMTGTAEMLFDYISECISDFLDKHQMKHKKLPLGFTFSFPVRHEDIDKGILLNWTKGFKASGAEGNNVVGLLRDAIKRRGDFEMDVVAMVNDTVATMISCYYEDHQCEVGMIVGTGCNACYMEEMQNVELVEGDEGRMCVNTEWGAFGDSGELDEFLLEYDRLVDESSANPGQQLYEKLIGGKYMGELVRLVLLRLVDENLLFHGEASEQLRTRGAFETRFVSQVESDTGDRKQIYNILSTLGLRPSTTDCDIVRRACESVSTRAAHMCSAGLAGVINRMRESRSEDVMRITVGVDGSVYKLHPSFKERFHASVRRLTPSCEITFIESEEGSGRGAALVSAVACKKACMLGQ
Kind of assay: Glucokinase tandem enzymatic assay. It is filed as biochemical. Particulars: 12 mM glucose; for Emax: expressed as a % of basal activation, read-out: Maximal activation (%) Human Glucokinase @ 12 mM Glucose. How it is done: Glucokinase Tandem Enzymatic Assay
Enzymatic activity of human glucokinase (GK) was measured by incubating GK, ATP, and glucose for discrete time periods followed by quenching with EDTA (ethylenediamine tetra-acetic acid). Relative amounts of product glucose-6-phosphate (G6P) were measured by then running a detection assay using G6P dehydrogenase and measuring the conversion of ThioNAD (thio-nicotinamide adenine dinucleotide) to ThioNADH (thio-dihydronicotinamide adenine dinucleotide) at a wavelength of 405 nm. This “uncoupled” enzymatic reaction is denoted as the GK “tandem” assay. Activation of GK by compounds can be assessed using this assay. The GK tandem assay protocol described below was followed using a range of activator compound concentrations from 0 to 100 μM at 5 and 12 mM of glucose. Human full-length glucokinase (GK, 15 nM) was incubated with 5 or 12 mM glucose in a 384 well black microtiter plate with a clear bottom. To initiate the GK reaction, magnesium-ATP (3 mM final concentration) was added to GK in buffer (final buffer conditions of 25 mM HEPES buffer, pH 7.1, containing 1 mM dithiothreitol and 5% DMSO). The total reaction volume was 20 μL. The reaction was allowed to proceed for ten minutes and was then quenched with 5 μL EDTA; 45 mM final). The components of the detection reaction, ThioNAD and G6PDH (glucose-6-phosphate dehydrogenase) (final concentrations of 650 μM and 3.33 Units, respectively), were then added together in a volume of 25 μL, (to give a total volume of 50 μL). Absorbance measurements were made at 405 nm on a SPECTRAMAX® Plus 384 absorbance plate reader (Molecular Devices). Absorbance was read, background glucose-6-phosphate levels were subtracted, after which activation was calculated as a percentage of control activity. Control activity was determined using GK in the presence of vehicle (DMSO), with background glucose-6-phosphate subtracted. Background glucose-6-phosphate was determined by pre-quenching GK with EDTA prior to reaction initiation with ATP.
Expression and Purification of Human GK
Full-length human hepatic GK (untagged) was expressed in BL21 STAR (DE3)pLysS cells (Invitrogen) at 25° C. as described by Mookhtiar et al. (1). The protein was purified essentially as described by Lange (2) with a slight modification. Briefly, cell pellets were lysed via three rounds of freezing and thawing, centrifuged at 15000 g for clarification, and precipitated with 40-65% (NH4)2SO4. The resulting pellet was resuspended in buffer, dialyzed, and applied directly to a Q-SEPHAROSE® (Sigma) column followed by elution with a linear 100-600 mM KCl gradient. GK containing fractions were pooled, dialyzed overnight vs. 25 mM Hepes pH 7.2/1 mM MgCl2/1 mM EDTA/0.1 M KCl/1 mM DTT, then dialyzed again with same buffer with 10% glycerol added.

Assay [1] has as its system male DIO (diet-induced obese) C57BL/6J mice. As to the kind of experiment: Oral glucose tolerance test (OGTT) in DIO mice. Type of assay: in vivo. The conditions noted are these: 30 μmol/kg given orally 60 min before 2 g/kg oral glucose; DIO C57BL/6J mice; ΔAUC 0-120 min. How it is done:
In Vivo Studies: Oral Glucose Tolerance Test (OGTT)
Oral glucose tolerance tests were carried out on male DIO (diet-induced obese) C57BL/6J mice fed a high fat diet (60% kcal from fat) for 26 weeks prior to experimentation. Mice were fasted overnight before use for experiments. A test compound or vehicle (either: 1) 40% PEG 400+10% Cremophore+50% water or 2) 10% dimethyl acetamide+10% ethanol+10% Cremophore+70% water) was given orally 60 min before oral administration of a glucose solution at a dose of 2 g/kg body weight (oral glucose tolerance test; OGTT). Blood glucose levels were measured from tail-bled samples taken at different time points before and after administration of glucose (time course of 2 hours). A time curve of the blood glucose was generated and the change from baseline area-under-the curve (ΔAUC) from 0-120 min was calculated (the time glucose administration being time zero).

Structures are written as SMILES.

As a reminder, the EC50 is the concentration needed to bring the measured effect to its halfway point. A lower EC50 goes with a more potent agent. On to `CCOP(C)(=O)Cn1ccc(Nc2ncnc3ccc(OC(C)C)cc23)n1` (racemic) [Example 3], for which, at Human Glucokinase, it took 810 nM to reach a half-maximal effect (EC50) and the Emax stood at 134%.

Turning to `CCOP(C)(=O)Cc1csc(Nc2ncnc3ccc(OC(CF)CF)cc23)n1` (racemic) [Example 6], a half-maximal response at Human Glucokinase (EC50) required 390 nM. That is a sub-micromolar value.

With `CCOP(=O)(Cc1csc(Nc2ncnc3ccc(OC(CF)CF)cc23)n1)OCC` [Example 1], at Human Glucokinase, the EC50 turned out to be 91 nM and the Emax stood at 145%. The “Reduction in Glucose AUC at 30 μmol/kg dose” value in assay [1] is 93%.

On to `CCOP(=O)(Cc1csc(Nc2ncnc3ccc(OC(C)C)cc23)n1)OCC` [Example 2], for which the EC50 at Human Glucokinase was found to be 136 nM.

Consider `CCOP(=O)(Cc1csc(Nc2ncnc3ccc(O[C@@H](C)COC)cc23)n1)OCC` [Example 4], for which the Emax on Human Glucokinase came to 180%.

Source of the values: patent publication US8592396B2, “Glucokinase activators and methods of using same” (Bristol-Myers Squibb Company, priority 2010, dated 2013).
